The source of these data is US7935815B2, “Imidazoyl pyridine compounds and salts thereof” (Eisai R&D Management Co., Ltd., priority 2007, dated 2011).

The experiment relates to Aβ42 production. As to the kind of experiment: Quantification of Aβ peptide in culture of neurons from rat fetus brain (Aβ ELISA). In kind it is cell-based. Particulars: Rattus norvegicus, Neuron, 72 h, rat primary neuronal culture (embryonic day 18 Wistar rat cerebral cortex); cultured three days after addition of compound; Aβx-42 ELISA of the medium; read-out: Aβ42 production reducing effect IC50. The method, boiled down: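 Primary cortical neurons from E18 Wistar rat embryos were cultured 4 days on poly-lysine, then treated with compound in Neurobasal/B27 without 2-mercaptoethanol (final DMSO ≤1%) for 3 days. Conditioned medium was assayed undiluted by ELISA for Aβx-42, against DMSO-only controls.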
As to `COc1cc(/C=C/c2nc3n(n2)CCC[C@@H]3[C@H]2CCCN2Cc2ccccc2)ccc1-n1cnc(C)c1` (single isomer, unassigned) [Example 133, (−)-8-(1-benzylpyrrolidin-2-yl)-2-{(E)-2-[3-methoxy-4-(4-methyl-1H-imidazol-1-yl)phenyl]vinyl}-5,6,7,8-tetrahydro[1,2,4]triazolo[1,5-a]pyridine], the IC50 was 65 nM. Then `COc1nc(/C=C/c2nc3n(n2)CCCC3c2ccccc2OC(F)(F)F)ccc1-n1cnc(C)c1` (single isomer, unassigned; (-)) [Example 283, (−)-8-(2-trifluoromethoxyphenyl)-2-{(E)-2-[6-methoxy-5-(4-methyl-1H-imidazol-1-yl)pyridin-2-yl]vinyl}-5,6,7,8-tetrahydro-[1,2,4]triazolo[1,5-a]pyridine], with 27 nM.

In the case of `COc1nc(/C=C/c2nc3n(n2)CCCC3c2cccc(C(F)(F)F)c2)ccc1-n1cnc(C)c1` (single isomer, unassigned; (-)) [Example 321, (−)-2-{(E)-2-[6-methoxy-5-(4-methyl-1H-imidazol-1-yl)pyridin-2-yl]vinyl}-8-(3-trifluoromethylphenyl)-5,6,7,8-tetrahydro[1,2,4]triazolo[1,5-a]pyridine], the IC50 worked out at 23 nM. The figure for `COc1nc(/C=C/c2nc3n(n2)CCCC3c2ccc(F)c(F)c2)ccc1-n1cnc(C)c1` (single isomer, unassigned) [Example 171, (−)-8-(3,4-difluorophenyl)-2-{(E)-2-[6-methoxy-5-(4-methyl-1H-imidazol-1-yl)pyridin-2-yl]vinyl}-5,6,7,8-tetrahydro-[1,2,4]triazolo[1,5-a]pyridine] is 17 nM; for `COc1cc(/C=C/c2nc3n(n2)CCCC3c2cccs2)ccc1-n1cnc(C)c1` (single isomer, unassigned; (-)) [Example 10, (−)-2-{(E)-2-[3-methoxy-4-(4-methyl-1H-imidazol-1-yl)phenyl]vinyl}-8-thiophen-2-yl-5,6,7,8-tetrahydro[1,2,4]triazolo[1,5-a]pyridine] it is 33 nM; for `COc1nc(/C=C/c2nc3n(n2)CCCC3c2ccccc2C)ccc1-n1cnc(C)c1` (single isomer, unassigned; (-)) [Example 319, (−)-2-{(E)-2-[6-methoxy-5-(4-methyl-1H-imidazol-1-yl)pyridin-2-yl]vinyl}-8-(o-tolyl)-5,6,7,8-tetrahydro[1,2,4]triazolo[1,5-a]pyridine] it is 15 nM.

Turning to `COc1nc(/C=C/c2nc3n(n2)CCCC3c2ccccc2F)ccc1-n1cnc(C)c1` (single isomer, unassigned; (-)) [Example 327, (−)-8-(2-fluorophenyl)-2-{(E)-2-[6-methoxy-5-(4-methyl-1H-imidazol-1-yl)pyridin-2-yl]vinyl}-5,6,7,8-tetrahydro-[1,2,4]triazolo[1,5-a]pyridine], the concentration for half-maximal inhibition (IC50) was 20 nM. `COc1nc(/C=C/c2nc3n(n2)CCC[C@H]3c2ccccc2Cl)ccc1-n1cnc(C)c1` (single isomer, unassigned) [Example 193, (−)-8-(2-chlorophenyl)-2-{(E)-2-[6-methoxy-5-(4-methyl-1H-imidazol-1-yl)pyridin-2-yl]vinyl}-5,6,7,8-tetrahydro-[1,2,4]triazolo[1,5-a]pyridine]: the IC50 was found to be 80 nM.

With `COc1cc(/C=C/c2nc3n(n2)CC[C@H](O)[C@@H]3c2cc(F)c(F)c(F)c2)ccc1-n1cnc(C)c1` [Example 106, (7S,8R)-2-{(E)-2-[3-methoxy-4-(4-methyl-1H-imidazol-1-yl)phenyl]vinyl}-8-(3,4,5-trifluorophenyl)-5,6,7,8-tetrahydro-[1,2,4]triazolo[1,5-a]pyridin-7-ol], the IC50 was determined as 39 nM. In the case of `COc1nc(/C=C/c2nc3n(n2)CCCC3c2ccc(F)cc2C(F)(F)F)ccc1-n1cnc(C)c1` (single isomer, unassigned; (-)) [Example 286, (−)-8-(2-trifluoromethyl-4-fluorophenyl)-2-{(E)-2-[6-methoxy-5-(4-methyl-1H-imidazol-1-yl)pyridin-2-yl]vinyl}-5,6,7,8-tetrahydro-[1,2,4]triazolo[1,5-a]pyridine], the IC50 stood at 8 nM. In the case of `COc1nc(/C=C/c2nc3n(n2)CCC(C)N3c2ccc(F)cc2F)ccc1-n1cnc(C)c1` (stereo not drawn) [Example 371, 4-(2,4-difluorophenyl)-2-{(E)-2-[6-methoxy-5-(4-methyl-1H-imidazol-1-yl)pyridin-2-yl]vinyl}-5-methyl-4,5,6,7-tetrahydro-[1,2,4]triazolo[1,5-a]pyrimidine], the 50% inhibitory concentration (IC50) came out at 27 nM. As for `COc1cc(/C=C/c2nc3n(n2)CCCC3c2ccc(Br)cc2)ccc1-n1cnc(C)c1` (single isomer, unassigned; (-)) [Example 20, (−)-8-(4-bromophenyl)-2-{(E)-2-[3-methoxy-4-(4-methyl-1H-imidazol-1-yl)phenyl]vinyl}-5,6,7,8-tetrahydro-[1,2,4]triazolo[1,5-a]pyridine], the IC50 amounted to 30 nM. With `COc1nc(/C=C/c2nc3n(n2)CCC3c2ccc(F)c(F)c2)ccc1-n1cnc(C)c1` (stereo not drawn) [Example 380, 7-(3,4-difluorophenyl)-2-{(E)-2-[6-methoxy-5-(4-methyl-1H-imidazol-1-yl)pyridin-2-yl]vinyl}-6,7-dihydro-5H-pyrrolo[1,2-b][1,2,4]triazole], the half-maximal inhibitory concentration (IC50) was 29 nM. As for `COc1nc(/C=C/c2nc3n(n2)CC[C@@H]3c2cc(F)c(F)c(F)c2)ccc1-n1cnc(C)c1` (single isomer, unassigned) [Example 254, (−)-2-{(E)-2-[6-methoxy-5-(4-methyl-1H-imidazol-1-yl)pyridin-2-yl]vinyl}-7-(3,4,5-trifluorophenyl)-6,7-dihydro-5H-pyrrolo[1,2-b][1,2,4]triazole], the IC50 turned out to be 50 nM. The figure for `COc1cc(/C=C/c2nc3n(n2)CCCC3c2cccc(F)c2)ccc1-n1cnc(C)c1` (single isomer, unassigned; (-)) [Example 2, (−)-8-(3-fluorophenyl)-2-{(E)-2-[3-methoxy-4-(4-methyl-1H-imidazol-1-yl)phenyl]vinyl}-5,6,7,8-tetrahydro[1,2,4]triazolo[1,5-a]pyridine] is 28 nM; for `COc1nc(/C=C/c2nc3n(n2)CCC3c2cc(F)cc(F)c2)ccc1-n1cnc(C)c1` (stereo not drawn) [Example 384, 7-(3,5-difluorophenyl)-2-{(E)-2-[6-methoxy-5-(4-methyl-1H-imidazol-1-yl)pyridin-2-yl]vinyl}-6,7-dihydro-5H-pyrrolo[1,2-b][1,2,4]triazole] it is 36 nM. Turning to `COc1cc(/C=C/c2nc3n(n2)CCC3c2ccccc2)ccc1-n1cnc(C)c1` (single isomer, unassigned) [Example 141, (−)-2-{(E)-2-[3-methoxy-4-(4-methyl-1H-imidazol-1-yl)phenyl]vinyl}-7-phenyl-6,7-dihydro-5H-pyrrolo[1,2-b][1,2,4]triazole], the half-maximal inhibitory concentration (IC50) was found to be 36 nM. With `COc1nc(/C=C/c2nc3n(n2)CCC[C@@H]3c2cccc(F)c2)ccc1-n1cnc(C)c1` (single isomer, unassigned) [Example 189, (−)-8-(3-fluorophenyl)-2-{(E)-2-[6-methoxy-5-(4-methyl-1H-imidazol-1-yl)pyridin-2-yl]vinyl}-5,6,7,8-tetrahydro[1,2,4]triazolo[1,5-a]pyridine], the IC50 was determined as 43 nM. As for `COc1cc(/C=C/c2nc3n(n2)CCC[C@]3(O)c2ccc(C(C)C)cc2)ccc1-n1cnc(C)c1` (single isomer, unassigned) [Example 55, (−)-8-(4-isopropylphenyl)-2-{(E)-2-[3-methoxy-4-(4-methyl-1H-imidazol-1-yl)phenyl]vinyl}-5,6,7,8-tetrahydro[1,2,4]triazolo[1,5-a]pyridin-8-ol], the IC50 turned out to be 28 nM. As to `CCCCC(=O)c1ccc(C2CCCn3nc(/C=C/c4ccc(-n5cnc(C)c5)c(OC)c4)nc32)cc1` (single isomer, unassigned; (-)) [Example 3, (−)-1-{4-{2-{(E)-2-[3-methoxy-4-(4-methyl-1H-imidazol-1-yl)phenyl]vinyl}-5,6,7,8-tetrahydro[1,2,4]triazolo[1,5-a]pyridin-8-yl}phenyl}pentan-1-one], the IC50 was determined as 48 nM. On to `COCc1cc(F)ccc1C1CCCn2nc(/C=C/c3ccc(-n4cnc(C)c4)c(OC)c3)nc21` (single isomer, unassigned; (-)) [Example 24, (−)-8-(4-fluoro-2-methoxymethylphenyl)-2-{(E)-2-[3-methoxy-4-(4-methyl-1H-imidazol-1-yl)phenyl]vinyl}-5,6,7,8-tetrahydro-[1,2,4]triazolo[1,5-a]pyridine], for which the IC50 amounted to 12 nM.

A word on the IC50: it is the concentration at which inhibition is half-maximal.
